Measurements from patent US20250296953A1, “3,4-THIAZOLO-STEROIDS AND METHODS OF MAKING AND USING THE SAME” (Arkansas State University - Jonesboro, priority 2018, published 2025).

What was measured:
[1] = tested on: 60 different human tumor cell lines; experiment: NCI Development Therapeutics Program 60 cell line screen, one dose; format: cell-based
SK-MEL-5 = experiment: Melanoma cytotoxicity assay (resazurin); format: cell-based; conditions: SK-MEL-5 melanoma cells, 24 hours with compound, resazurin; concentration not given
In short: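 Viability read by resazurin fluorescence (ex 544, em 590 nm) after 6 h, following 24 h compound exposure of cells plated 24 h earlier (~4000/well). Triplicate means, minus medium blank, divided by DMSO control; IC50 derived from sigmoidal dose-response curves.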

[2] = Non-small Cell Lung Cancer, A549/ATCC
[3] = Non-small Cell Lung Cancer, EKVX
[4] = Non-small Cell Lung Cancer, HOP-62
[5] = Non-small Cell Lung Cancer, HOP-92
[6] = Non-small Cell Lung Cancer, NCI-H23
[7] = Non-small Cell Lung Cancer, NCI-H226
[8] = Non-small Cell Lung Cancer, NCI-H322M
[9] = Non-small Cell Lung Cancer, NCI-H460

C[C@]12CCc3sc(NCCc4ccccc4)nc3C1=CC[C@@H]1[C@@H]2CC[C@]2(C)C(=O)CC[C@@H]12 [IIa.2, (1S,2R,13R,14S,18S)-2,18-dimethyl-7-(2-phenylethylamino)-6-thia-8-azapentacyclo [11.7.0.02,10.05,9.014,18]icosa-5(9),7,10-trien-17-one]
Growth Percent ([1]; Breast Cancer, BT-549): 60.37% | Growth Percent ([1]; Breast Cancer, HS 578T): 75.51% | Growth Percent ([1]; Breast Cancer, MCF7): 20.41% | Growth Percent ([1]; Breast Cancer, MDA-MB-231/ATCC): 83.12% | Growth Percent ([1]; Breast Cancer, MDA-MB-468): 32.92% | Growth Percent ([1]; Breast Cancer, T-47D): 75.21% | Growth Percent ([1]; CNS Cancer, SF-268): 83.93% | Growth Percent ([1]; CNS Cancer, SNB-19): 80.20% | Growth Percent ([1]; CNS Cancer, SNB-75): 85.55% | Growth Percent ([1]; CNS Cancer, U251): 60.12% | Growth Percent ([1]; Colon Cancer, COLO 205): 90.61% | Growth Percent ([1]; Colon Cancer, HCC-2998): 105.58% | Growth Percent ([1]; Colon Cancer, HCT-116): 21.16% | Growth Percent ([1]; Colon Cancer, HT29): 34.29% | Growth Percent ([1]; Colon Cancer, KM12): 74.67% | Growth Percent ([1]; Colon Cancer, SW-620): 35.34% | Growth Percent ([1]; Leukemia, CCRF-CEM): 8.44% | Growth Percent ([1]; Leukemia, HL-60(TB)): 1.45% | Growth Percent ([1]; Leukemia, K-562): 5.14% | Growth Percent ([1]; Leukemia, MOLT-4): 4.71% | Growth Percent ([1]; Leukemia, RPMI-8226): −5.28% | Growth Percent ([1]; Leukemia, SR): 0.92% | Growth Percent ([1]; Melanoma, LOX IMVI): 70.22% | Growth Percent ([1]; Melanoma, M14): 85.36% | Growth Percent ([1]; Melanoma, MALME-3M): 73.32% | Growth Percent ([1]; Melanoma, MDA-MB-435): 58.12% | Growth Percent ([1]; Melanoma, SK-MEL-2): 92.09% | Growth Percent ([1]; Melanoma, SK-MEL-5): 65.96% | Growth Percent ([1]; Melanoma, SK-MEL-28): 83.31% | Growth Percent ([1]; Melanoma, UACC-62): 75.59% | Growth Percent ([1]; Melanoma, UACC-257): 87.36% | Growth Percent [1, 2]: 87.76% | Growth Percent [1, 3]: 92.45% | Growth Percent [1, 4]: 101.67% | Growth Percent [1, 5]: 66.42% | Growth Percent [1, 6]: 66.61% | Growth Percent [1, 7]: 84.07% | Growth Percent [1, 8]: 91.89% | Growth Percent [1, 9]: 72.80% | Growth Percent ([1]; Ovarian Cancer, IGROV1): 87.98% | Growth Percent ([1]; Ovarian Cancer, NCI/ADR-RES): 70.16% | Growth Percent ([1]; Ovarian Cancer, OVCAR-3): 6.41% | Growth Percent ([1]; Ovarian Cancer, OVCAR-4): 74.22% | Growth Percent ([1]; Ovarian Cancer, OVCAR-5): 100.34% | Growth Percent ([1]; Ovarian Cancer, OVCAR-8): 72.09% | Growth Percent ([1]; Ovarian Cancer, SK-OV-3): 111.53% | Growth Percent ([1]; Prostate Cancer, DU-145): 33.94% | Growth Percent ([1]; Prostate Cancer, PC-3): 38.82% | Growth Percent ([1]; Renal Cancer, 786-0): 4.36% | Growth Percent ([1]; Renal Cancer, A498): 86.92% | Growth Percent ([1]; Renal Cancer, ACHN): 73.78% | Growth Percent ([1]; Renal Cancer, CAKI-1): 73.48% | Growth Percent ([1]; Renal Cancer, RXF 393): 20.01% | Growth Percent ([1]; Renal Cancer, SN12C): 68.49% | Growth Percent ([1]; Renal Cancer, TK-10): 91.34% | Growth Percent ([1]; Renal Cancer, UO-31): 50.44% | SK-MEL-5 (% inhibition) (SK-MEL-5): 73%

(1S,2R,13R,14S,18S)-7-(2,4-dimethylanilino)-2,18-dimethyl-6-thia-8-azapentacyclo[11.7.0.02,10.05,9.014,18]icosa-5(9),7,10-trien-17-one [IIa.14]
Growth Percent ([1]; Breast Cancer, BT-549): 2.85% | Growth Percent ([1]; Breast Cancer, HS 578T): 45.27% | Growth Percent ([1]; Breast Cancer, MCF7): 18.18% | Growth Percent ([1]; Breast Cancer, MDA-MB-231/ATCC): 26.55% | Growth Percent ([1]; Breast Cancer, MDA-MB-468): 16.97% | Growth Percent ([1]; Breast Cancer, T-47D): 41.81% | Growth Percent ([1]; CNS Cancer, SF-268): 46.93% | Growth Percent ([1]; CNS Cancer, SNB-19): 44.03% | Growth Percent ([1]; CNS Cancer, SNB-75): 35.14% | Growth Percent ([1]; CNS Cancer, U251): 18.36% | Growth Percent ([1]; Colon Cancer, COLO 205): 62.35% | Growth Percent ([1]; Colon Cancer, HCC-2998): 84.48% | Growth Percent ([1]; Colon Cancer, HCT-116): −27.32% | Growth Percent ([1]; Colon Cancer, HT29): 3.81% | Growth Percent ([1]; Colon Cancer, KM12): 44.55% | Growth Percent ([1]; Colon Cancer, SW-620): 4.35% | Growth Percent ([1]; Leukemia, CCRF-CEM): 7.99% | Growth Percent ([1]; Leukemia, HL-60(TB)): 9.29% | Growth Percent ([1]; Leukemia, K-562): 5.33% | Growth Percent ([1]; Leukemia, MOLT-4): −0.31% | Growth Percent ([1]; Leukemia, RPMI-8226): −3.52% | Growth Percent ([1]; Leukemia, SR): −0.63% | Growth Percent ([1]; Melanoma, LOX IMVI): −16.56% | Growth Percent ([1]; Melanoma, M14): 37.85% | Growth Percent ([1]; Melanoma, MALME-3M): 27.34% | Growth Percent ([1]; Melanoma, MDA-MB-435): 16.89% | Growth Percent ([1]; Melanoma, SK-MEL-2): 72.63% | Growth Percent ([1]; Melanoma, SK-MEL-5): 51.38% | Growth Percent ([1]; Melanoma, SK-MEL-28): 50.77% | Growth Percent ([1]; Melanoma, UACC-62): 39.03% | Growth Percent ([1]; Melanoma, UACC-257): 65.55% | Growth Percent [1, 2]: 61.13% | Growth Percent [1, 3]: 51.95% | Growth Percent [1, 4]: 45.74% | Growth Percent [1, 5]: 65.93% | Growth Percent [1, 6]: 54.16% | Growth Percent [1, 7]: 72.85% | Growth Percent [1, 8]: 79.50% | Growth Percent [1, 9]: 45.78% | Growth Percent ([1]; Ovarian Cancer, IGROV1): 17.68% | Growth Percent ([1]; Ovarian Cancer, NCI/ADR-RES): 53.35% | Growth Percent ([1]; Ovarian Cancer, OVCAR-3): −6.33% | Growth Percent ([1]; Ovarian Cancer, OVCAR-4): 59.62% | Growth Percent ([1]; Ovarian Cancer, OVCAR-5): 59.08% | Growth Percent ([1]; Ovarian Cancer, OVCAR-8): 31.69% | Growth Percent ([1]; Ovarian Cancer, SK-OV-3): 78.49% | Growth Percent ([1]; Prostate Cancer, DU-145): 25.93% | Growth Percent ([1]; Prostate Cancer, PC-3): 15.83% | Growth Percent ([1]; Renal Cancer, 786-0): 5.54% | Growth Percent ([1]; Renal Cancer, A498): 66.68% | Growth Percent ([1]; Renal Cancer, ACHN): 32.28% | Growth Percent ([1]; Renal Cancer, CAKI-1): 49.83% | Growth Percent ([1]; Renal Cancer, RXF 393): 28.78% | Growth Percent ([1]; Renal Cancer, SN12C): 26.21% | Growth Percent ([1]; Renal Cancer, TK-10): 63.32% | Growth Percent ([1]; Renal Cancer, UO-31): 34.25%
